Data published in patent US20100196311A1, “METHODS AND COMPOSITIONS CONTAINING mTOR INHIBITORS FOR ENHANCING IMMUNE RESPONSES” (priority 2009, published 2010).

What was measured:
Eomesodermin = Eomesodermin mRNA and protein expression in OT-I cells; format: cell-based, mouse
Description: FIG. 5. Inhibition of mTOR Promotes Persistent Eomes Expression and Phenotypic Markers of Memory in CD8+T Cells. (A and B) OT-I cells stimulated with Ag+B7.1 (±) IL-12 and rapamycin were evaluated for (A) mRNA for Eomes at the indicated time points by RT-PCR and (B) Eomes protein expression at 72 hr by ICS. *p<0.03. (C) OT-I cells stimulated with Ag+B7.1 (±) IL-12 and rapamycin were transduced with T-bet-ER retroviral vector (±) 4-HT (10 nM) and evaluated for Eomes protein expression at 96 hr. (D) OT-I cells stimulated with Ag+B7.1 (±) IL-12 and rapamycin were evaluated for CD62L, CD69, KLRG1, CD127, and CD122 expression at 72 hr. (E) Bcl-2 and Bcl-3 mRNA expression at the indicated time points. (F and G) OT-I cells stimulated with Ag+B7.1 (±) IL-12 and rapamycin for 72 hr were washed twice and rested for an additional 72 hr in the presence of (F) IL-7 (10 ng/ml), *p<0.02, and (G) IL-15 (10 ng/ml). *p<0.02 and percent (%) cell recovery was calculated at 144 hr. […]
The closely related transcription factors T-bet and Eomesodermin are inversely regulated in effector and memory CD8^+T cells. To determine whether mTOR inhibition, which curtailed T-bet expression, led to induction of Eomesodermin, we systematically analyzed Eomesodermin mRNA expression in OT-I cells. […] We also determined whether IFN-α could also regulate mTOR activity and T-bet expression in OT-I cells.

mTOR = biological target: T1, mTOR (Mus musculus, UniProt P26883+Q9JLN9); assay: mTOR activity (mTOR, S6K and S6 phosphorylation by ICS) in stimulated OT-I cells; format: cell-based
T1 construct: endogenous in cells; host or cells: naive OT-I CD8+ T cells (TCR transgenic Rag2-/- mice) stimulated with Ag+B7.1 +/- IL-12
Description: FIG. 1. […] (A and B) OT-I cells stimulated with BOK (Ag+B7.1) (±) IL-12 were evaluated for (A) IFN-γ by ICS and (B) cytolytic activity (primary, 72 hr poststimulation; secondary, 24 hr postsecondary stimulation); ***p<0.0002. (C-E) OT-I cells stimulated with antigen (Ag) (the antigen is a peptide consisting of Ser Ile Ile followed by Asn Phe Glu which are followed by Lys and Lue (OVAp), used at 10 nM) plus B7.1 (100 μg/ml)(Ag+B7.1)(±) IL-12 (2 ng/ml) were evaluated by ICS at the indicated time points for (C) phosphorylated mTOR, (D) phosphorylated S6K, and (E) phosphorylated ribosomal S6. For mTOR inhibition, rapamycin (20 ng/ml) was added 30 min prior to addition of antigen, cytokine Data are representative of at least three independent experiments with similar outcomes. (Data are presented as mean±SEM.)
Stimulation of OT-1 Cells. Naive OT-I cells were stimulated with latex microspheres expressing H-2K^b/ovalbumin antigen and B7.1 according to known techniques. Naive OT-II cells were stimulated with anti-CD3-/anti-CD28-coated latex beads. In some experiments, the cell line derived from embryonic fibroblasts, namely, BOK (MEC.B7.SigOVA: expressing H-2K^b, OVAp and B7.1, were used as antigen-presenting cells to stimulate naive OT-I cells according to known techniques.
Although the kinase mTOR has been implicated as an integrator of various extracellular signals and a sensor for internal energy levels for determination of cell fate, the role for mTOR in integrating instructions that program naive CD8^+ T cells for type I effector differentiation is unclear. First, we tested the ability of Ag and B7.1 (Ag+B7.1) in the presence or absence of IL-12 to activate mTOR in OT-I cells at various time points after stimulation. Stimulation of naive OT-I cells with Ag+B7.1 induced mTOR phosphorylation (activation) by 2 hr, which was maximal at 12 hr and barely detectable by 48 hr (FIG. 1C). Remarkably, IL-12 addition enhanced Ag+B7.1-induced mTOR phosphorylation at 2 hr, which was maintained at 48 hr after stimulation (FIG. 1C). […] To verify that the induction of mTOR phosphorylation also led to its kinase activity, we monitored the kinetics of p70 S6K phosphorylation (Ser 371), a direct target of mTOR kinase activity. Although both Ag+B7.1 and Ag+B7.1 plus IL-12 induced similar amounts of S6K phosphorylation at 12 hr (maximal), the presence of IL-12 was able to sustain the S6K phosphorylation up to 48 hr (FIG. 10), in correlation with mTOR phosphorylation (FIG. 1C). […] The Ag+B7.1±IL-12 stimulation-induced S6K and S6 phosphorylation in OT-I cells was blocked by rapamycin (specific inhibitor of mTOR complex-1) (FIGS. 1D and 1E), thus confirming the ability of instructions to activate mTOR and its kinase activity in OT-I cells. […]

[1] = IFN-α, Ag+B7.1-stimulated OT-I cells

Row | mTOR activity (mTOR; [1]) | mTOR phosphorylation (mTOR; IL-12 (2 ng/ml) added to Ag+B7.1 stimulation, 2-48 hr) | Molecule | Eomesodermin expression (Eomesodermin; [1]) | Eomesodermin expression (Eomesodermin; IL-12 addition to Ag+B7.1 stimulation)
1 | unable to enhance |  | IFN-α | increases | 
2 |  | enhances and sustains | IL-12: interleukin-12, cytokine (signal 3) (protein, UniProt P43431 23-215; P43432 23-335, looked up) Interleukin-12 subunit alpha: RVIPVSGPARCLSQSRNLLKTTDDMVKTAREKLKHYSCTAEDIDHEDITRDQTSTLKTCLPLELHKNESCLATRETSSTTRGSCLPPQKTSLMMTLCLGSIYEDLKMYQTEFQAINAALQNHNHQQIILDKGMLVAIDELMQSLNHNGETLRQKPPVGEADPYRVKMKLCILLHAFSTRVVTINRVMGYLSSA Interleukin-12 subunit beta: MWELEKDVYVVEVDWTPDAPGETVNLTCDTPEEDDITWTSDQRHGVIGSGKTLTITVKEFLDAGQYTCHKGGETLSHSHLLLHKKENGIWSTEILKNFKNKTFLKCEAPNYSGRFTCSWLVQRNMDLKFNIKSSSSSPDSRAVTCGMASLSAEKVTLDQRDYEKYSVSCQEDVTCPTAEETLPIELALEARQQNKYENYSTSFFIRDIIKPDPPKNLQMKPLKNSQVEVSWEYPDSWSTPHSYFSLKFFVRIQRKKEKMKETEEGCNQKGAFLVEKTSTEVQCKGGNVCVQAQDRYYNSSCSKWACVPCRVRS |  | reduced
